# Experimental data reported in US7897150B1, “Canine lymphoma cell line and uses thereof” (The Ohio State University, priority 2007, dated 2011).
# Where a name gives a salt, the structure may show the parent alone.
# Tested on: OSW cell line
# Experiment: In vitro chemosensitivity (WST-1 cytotoxicity and proliferation assay)
# Format: cell-based
# Conditions: Canis lupus familiaris; OSW canine T-cell lymphoma cell line, 72 h treatment, WST-1 assay; read-out: inhibitory concentration 50% (IC50)
# Method: 1-2×10^4 cells were seeded in 96-well plates in quadruplicates to a final volume of 200 μL/well. Cells were treated with doxorubicin hydrochloride (Ben Venue Laboratories-Novation, Bedford, Ohio, USA) or vincristine sulfate (Mayne Pharma Pty Ltd., Mulgrave VIC, Australia) at varying concentrations of drug or vehicle control for 72 h. Cell proliferation and viability was determined using the WST-1 assay, which quantifies the reduction of the tetrazolium salt WST-1 by mitochondria in viable cells. Cell number was determined from absorbance values of known numbers of cells. At various time intervals, 20 μl of WST-1 reagent (Roche, Indianapolis, Ind., USA) was added to each well and incubated for 2 to 4 h at 37° C. The absorbance of the reaction product, after background subtraction, was measured at 450 nm on a Spectra Max M2 plate reader (Molecular Devices, Sunnyvale, Calif., USA). Each experiment was repeated at least three times.
# The in vitro chemosensitivity of the OSW cell line to doxorubicin and vincristine was determined.
row,Structure (SMILES),IC50
1,"COc1cccc2c1C(=O)c1c(O)c3c(c(O)c1C2=O)C[C@@](O)(C(=O)CO)C[C@@H]3O[C@H]1C[C@H](N)[C@H](O)[C@H](C)O1 [Doxorubicin, doxorubicin hydrochloride]",0.5 µM
2,"CC[C@]1(O)C[C@H]2CN(CCc3c([nH]c4ccccc34)[C@@](C(=O)OC)(c3cc4c(cc3OC)N(C=O)[C@H]3[C@@](O)(C(=O)OC)[C@H](OC(C)=O)[C@]5(CC)C=CCN6CC[C@]43[C@@H]65)C2)C1 [vincristine, vincristine sulfate]",0.4 µM
